Experiment [1] addresses human activated kallikrein enzyme (Homo sapiens, UniProt P03952). Kind of experiment: Inhibition of activated plasma kallikrein, fluorogenic peptide substrate (PFR-AMC) assay, 500 pM enzyme format. Type of experiment: biochemical. To be noted: 500 pM activated kallikrein, 300 uM PFR-AMC, 30 min preincubation, 10 min reaction, room temperature; read-out: Primary Dose Response Assay: Average EC50. An outline of the steps:
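500 pM enzyme preincubated 30 min at room temperature with inhibitor in 20 mM Tris pH 7.5, 150 mM NaCl, 1 mM EDTA, 0.1% PEG-400, 0.1% Triton X-100. Reaction started with 300 uM PFR-AMC and run 10 min at room temperature. Fluorescence read at 380 nm excitation/460 nm emission.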

In another experiment the target is T1, plasma kallikrein (Homo sapiens, UniProt P03952).
T1 construct: from tissue; host or cells: sodium citrate collected human plasma (78% final)
T1 sequence (P03952 391-638 limits assumed): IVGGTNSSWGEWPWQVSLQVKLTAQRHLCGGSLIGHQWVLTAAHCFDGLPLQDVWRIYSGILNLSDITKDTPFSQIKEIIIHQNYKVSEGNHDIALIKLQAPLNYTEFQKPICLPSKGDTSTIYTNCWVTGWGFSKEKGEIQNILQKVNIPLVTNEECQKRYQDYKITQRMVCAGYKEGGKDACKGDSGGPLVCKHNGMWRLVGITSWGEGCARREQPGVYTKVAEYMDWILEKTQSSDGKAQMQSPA
T1 sequence (P03952 20-390 partner limits assumed): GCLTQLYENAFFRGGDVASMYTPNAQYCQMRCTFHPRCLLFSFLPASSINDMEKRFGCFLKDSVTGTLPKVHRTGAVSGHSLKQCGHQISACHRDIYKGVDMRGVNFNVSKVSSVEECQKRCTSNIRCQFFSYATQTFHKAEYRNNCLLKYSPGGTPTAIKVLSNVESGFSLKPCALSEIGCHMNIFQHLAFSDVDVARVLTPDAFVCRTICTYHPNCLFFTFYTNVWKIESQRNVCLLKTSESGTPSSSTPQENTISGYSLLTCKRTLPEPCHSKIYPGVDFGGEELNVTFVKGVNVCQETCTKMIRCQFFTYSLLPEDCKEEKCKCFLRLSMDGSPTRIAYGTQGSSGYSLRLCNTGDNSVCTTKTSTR
Kind of experiment: Neat human plasma assay: contact pathway-activated (FXIIa) plasma, PFR-AMC substrate. It counts as biochemical. The settings on record: citrated human plasma (78% final), 10 nM human FXIIa, 100 μM PFR-AMC, room temperature. The procedure, abridged:
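Compounds spiked into citrated human or rat plasma (78% final), or plasma taken from orally or IV dosed rats, activated with 10 nM human FXIIa; 100 μM PFR-AMC cleavage read at 360/480 nm for 5 min, room temperature. Rates vs concentration fit to 4-parameter IC50/IC90 equation.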

The structures appear in SMILES notation.

Sequence of human activated kallikrein enzyme (P03952 391-638 limits assumed): as the sequence (P03952 391-638 limits assumed) above
Sequence of human activated kallikrein enzyme (P03952 20-390 partner limits assumed): as the sequence (P03952 20-390 partner limits assumed) above

What is called EC50 is the concentration needed to bring the measured effect to its halfway point. As usually defined, the IC90 is the point of the concentration-response curve where the effect stands at 90%. The low end stands for greater potency, the high end for weaker potency. In the case of `COc1cc([C@H]2C[C@@H]2c2nccc(C)n2)nc2cc(N3C[C@@H](O)C[C@@H]3c3cn4cc(C5CC5)cc(N5CC(=O)N(C)C5=O)c4n3)ccc12` (relative stereo) [Example 67, rac-1-(6-cyclopropyl-2-((2R,4S)-4-hydroxy-1-(4-methoxy-2-((1S*,2S*)-2-(4-methylpyrimidin-2-yl)cyclopropyl)quinolin-7-yl)pyrrolidin-2-yl)imidazo[1,2-a]pyridin-8-yl)-3-methylimidazolidine-2,4-dione], the EC50 in experiment [1] was in the range of 1 to 10 nM. On plasma kallikrein, the concentration for an effect of 90% (IC90) was in the range of 400 to 1500 nM.
The like results for `Cc1ccnc([C@H]2C[C@@H]2c2ccc3ccc(N4C[C@@H](O)C[C@@H]4c4cn5cc(C6CC6)cc(N6CC(=O)N(C)C6=O)c5n4)cc3n2)n1` (relative stereo) [Example 68, rac-1-(6-cyclopropyl-2-((2R,4S)-4-hydroxy-1-(2-((1S*,2S*)-2-(4-methylpyrimidin-2-yl)cyclopropyl)quinolin-7-yl)pyrrolidin-2-yl)imidazo[1,2-a]pyridin-8-yl)-3-methylimidazolidine-2,4-dione] were, in that order, 1 to 10 nM and 1500 to 10000 nM.
The matching figures for `Cc1ccnc(C2CC2c2cc(=O)c3ccc(NCc4cn5cc(C6CC6)cc(N6CC(=O)N(C)C6=O)c5n4)cc3[nH]2)n1` (single isomer, unassigned) [Example 12, 1-(6-cyclopropyl-2-(((2-(2-(4-methylpyrimidin-2-yl)cyclopropyl)-4-oxo-1,4-dihydroquinolin-7-yl)amino)methyl)imidazo[1,2-a]pyridin-8-yl)-3-methylimidazolidine-2,4-dione]: at most 1 nM and 400 to 1500 nM.
The like results for `Cc1ccnc(C2CC2c2cc(=O)c3ccc(NCc4cn5cc(C6CC6)cc(N6CC(=O)N(C)C6=O)c5n4)cc3[nH]2)n1` (single isomer, unassigned) [Example 13, 1-(6-cyclopropyl-2-(((2-(2-(4-methylpyrimidin-2-yl)cyclopropyl)-4-oxo-1,4-dihydroquinolin-7-yl)amino)methyl)imidazo[1,2-a]pyridin-8-yl)-3-methylimidazolidine-2,4-dione] were, in that order, 1 to 10 nM and at most 400 nM.
For the compound `Cc1ccnc([C@H]2C[C@@H]2c2ccc3ccc(NCc4cn5cc(C6CC6)cc(N6CC(=O)N(C)C6=O)c5n4)cc3n2)n1` (single isomer, unassigned) [Example 59], the half-maximal effective concentration (EC50) in experiment [1] is at most 1 nM. At plasma kallikrein, the IC90 fell in the range of 1500 to 10000 nM.
As to `Cc1ccnc([C@H]2C[C@@H]2C2=NS(=O)(=O)c3ccc(NCc4cn5cc(C6CC6)ccc5n4)cc3N2)n1` (single isomer, unassigned) [Example 65], the half-maximal effective concentration (EC50) in experiment [1] is at most 1 nM. The same compound returned an IC90 against plasma kallikrein of 400 to 1500 nM.
The matching figures for `CN1C(=O)CN(c2cc(C3CC3)cn3cc(CNc4ccc5c(=O)[nH]c([C@H]6C[C@@H]6c6cccc(Cl)c6)nc5c4)nc23)C1=O` [Example 6, 1-(2-(((2-((1S,2S)-2-(3-chlorophenyl)cyclopropyl)-4-oxo-3,4-dihydroquinazolin-7-yl)amino)methyl)-6-cyclopropylimidazo[1,2-a]pyridin-8-yl)-3-methylimidazolidine-2,4-dione]: 1 to 10 nM and 1500 to 10000 nM.
The matching figures for `Cc1ccnc([C@H]2C[C@@H]2c2cc(-c3cnn(C)c3)c3ccc(NCc4cn5cc(C6CC6)cc(N6CC(=O)N(C)C6=O)c5n4)cc3n2)n1` [Example 27, 1-(6-cyclopropyl-2-(((4-(1-methyl-1H-pyrazol-4-yl)-2-((1S,2S)-2-(4-methylpyrimidin-2-yl)cyclopropyl)quinolin-7-yl)amino)methyl)imidazo[1,2-a]pyridin-8-yl)-3-methylimidazolidine-2,4-dione]: at most 1 nM and 400 to 1500 nM.
The matching figures for `COc1cc(NCc2cn3cc(C4CC4)cc(N4CC(=O)N(C)C4=O)c3n2)cc2nc([C@H]3C[C@@H]3c3nccc(C)n3)ccc12` [Example 28, 1-(6-cyclopropyl-2-(((5-methoxy-2-((1S,2S)-2-(4-methylpyrimidin-2-yl)cyclopropyl)quinolin-7-yl)amino)methyl)imidazo[1,2-a]pyridin-8-yl)-3-methylimidazolidine-2,4-dione]: at most 1 nM and 400 to 1500 nM.
As for `Cc1ccnc([C@H]2C[C@@H]2c2cc(N3CCC3)c3ccc(NCc4cn5cc(C6CC6)cc(N6CC(=O)N(C)C6=O)c5n4)cc3n2)n1` [Example 30, 1-(2-(((4-(azetidin-1-yl)-2-((1S,2S)-2-(4-methylpyrimidin-2-yl)cyclopropyl)quinolin-7-yl)amino)methyl)-6-cyclopropylimidazo[1,2-a]pyridin-8-yl)-3-methylimidazolidine-2,4-dione], the concentration giving a half-maximal response (EC50) in experiment [1] was at most 1 nM. Further, the IC90 on plasma kallikrein is at most 400 nM.
As for `Cc1ccnc([C@H]2C[C@@H]2c2cc(N3CC(O)C3)c3ccc(NCc4cn5cc(C6CC6)cc(N6CC(=O)N(C)C6=O)c5n4)cc3n2)n1` [Example 31, 1-(6-cyclopropyl-2-(((4-(3-hydroxyazetidin-1-yl)-2-((1S,2S)-2-(4-methylpyrimidin-2-yl)cyclopropyl)quinolin-7-yl)amino)methyl)imidazo[1,2-a]pyridin-8-yl)-3-methylimidazolidine-2,4-dione], in experiment [1], the half-maximal effective concentration (EC50) is at most 1 nM. This compound also registered an IC90 at plasma kallikrein of at most 400 nM.
The like results for `Cc1ccnc([C@H]2C[C@@H]2c2cc(N3CC4(COC4)C3)c3ccc(NCc4cn5cc(C6CC6)cc(N6CC(=O)N(C)C6=O)c5n4)cc3n2)n1` [Example 36, 1-(6-cyclopropyl-2-(((2-((1S,2S)-2-(4-methylpyrimidin-2-yl)cyclopropyl)-4-(2-oxa-6-azaspiro[3.3]heptan-6-yl)quinolin-7-yl)amino)methyl)imidazo[1,2-a]pyridin-8-yl)-3-methylimidazolidine-2,4-dione] were, in that order, at most 1 nM and at most 400 nM.
The matching figures for `Cc1ccnc([C@H]2C[C@@H]2c2cc(N3CCS(=O)(=O)CC3)c3ccc(NCc4cn5cc(C6CC6)cc(N6CC(=O)N(C)C6=O)c5n4)cc3n2)n1` [Example 37, 1-(6-cyclopropyl-2-(((4-(1,1-dioxidothiomorpholino)-2-((1S,2S)-2-(4-methylpyrimidin-2-yl)cyclopropyl)quinolin-7-yl)amino)methyl)imidazo[1,2-a]pyridin-8-yl)-3-methylimidazolidine-2,4-dione]: at most 1 nM and at most 400 nM.
The like results for `Cc1ccnc([C@H]2C[C@@H]2c2cc(NCC(C)(C)O)c3ccc(NCc4cn5cc(C6CC6)cc(N6CC(=O)N(C)C6=O)c5n4)cc3n2)n1` [Example 38, 1-(6-cyclopropyl-2-(((4-((2-hydroxy-2-methylpropyl)amino)-2-((1S,2S)-2-(4-methylpyrimidin-2-yl)cyclopropyl)quinolin-7-yl)amino)methyl)imidazo[1,2-a]pyridin-8-yl)-3-methylimidazolidine-2,4-dione] were, in that order, at most 1 nM and at most 400 nM.
Regarding `Cc1ccnc([C@H]2C[C@@H]2c2cc(N3CCN(C)CC3)c3ccc(NCc4cn5cc(C6CC6)cc(N6CC(=O)N(C)C6=O)c5n4)cc3n2)n1` [Example 39, 1-(6-cyclopropyl-2-(((4-(4-methylpiperazin-1-yl)-2-((1S,2S)-2-(4-methylpyrimidin-2-yl)cyclopropyl)quinolin-7-yl)amino)methyl)imidazo[1,2-a]pyridin-8-yl)-3-methylimidazolidine-2,4-dione], the EC50 in experiment [1] was at most 1 nM. In addition, the 90% effect concentration (IC90) on plasma kallikrein was at most 400 nM.
In the case of `Cc1ccnc([C@H]2C[C@@H]2c2cc(N3CC4(COC4)C3)c3ccc(OCc4cn5cc(C6CC6)cc(N6CC(=O)N(C)C6=O)c5n4)cc3n2)n1` [Example 43, 1-[6-cyclopropyl-2-[[2-[(1S,2S)-2-(4-methylpyrimidin-2-yl)cyclopropyl]-4-(2-oxa-6-azaspiro[3.3]heptan-6-yl)-7-quinolyl]oxymethyl]imidazo[1,2-a]pyridin-8-yl]-3-methyl-imidazolidine-2,4-dione], the concentration for a half-maximal effect (EC50) in experiment [1] is at most 1 nM. Besides, the IC90 at plasma kallikrein is at most 400 nM.
As to `Oc1cc([C@H]2C[C@@H]2c2cccc(Cl)c2)nc2cc(NCc3cn4cc(C5CC5)ccc4n3)ccc12` [Example 51, 2-((1S,2S)-2-(3-chlorophenyl)cyclopropyl)-7-(((6-cyclopropylimidazo[1,2-a]pyridin-2-yl)methyl)amino)quinolin-4-ol], the EC50 in experiment [1] lay within 1 to 10 nM. The concentration for an effect of 90% (IC90) at plasma kallikrein lay in the range of 1500 to 10000 nM.
The matching figures for `Cc1ccnc([C@H]2C[C@@H]2C2=NS(=O)(=O)c3ccc(NC(C)c4cn5cc(C6CC6)ccc5n4)cc3N2)n1` (stereo partly drawn) [Example 87, 6-((1-(6-cyclopropylimidazo[1,2-a]pyridin-2-yl)ethyl)amino)-3-((1S,2S)-2-(4-methylpyrimidin-2-yl)cyclopropyl)-4H-benzo[e][1,2,4]thiadiazine 1,1-dioxide]: at most 1 nM and 400 to 1500 nM.
The like results for `Cc1ccnc([C@H]2C[C@@H]2C2=NS(=O)(=O)c3ccc(OCc4cn5cc(C6CC6)ccc5n4)cc3N2)n1` [Example 91, 6-((6-cyclopropylimidazo[1,2-a]pyridin-2-yl)methoxy)-3-((1S,2S)-2-(4-methylpyrimidin-2-yl)cyclopropyl)-4H-benzo[e][1,2,4]thiadiazine 1,1-dioxide] were, in that order, at most 1 nM and 1500 to 10000 nM.
The like results for `Cc1ccnc([C@H]2C[C@@H]2C2=NS(=O)(=O)c3cc4c(cc3N2)N(Cc2cn3cc(C5CC5)ccc3n2)CCO4)n1` [Example 93, 6-((6-cyclopropylimidazo[1,2-a]pyridin-2-yl)methyl)-3-((1S,2S)-2-(4-methylpyrimidin-2-yl)cyclopropyl)-7,8-dihydro-4H,6H-[1,4]oxazino[2′,3′:4,5]benzo[1,2-e][1,2,4]thiadiazine 1,1-dioxide] were, in that order, at most 1 nM and 1500 to 10000 nM.

The values are drawn from patent publication US20240199613A1 (TAKEDA PHARMACEUTICAL COMPANY LIMITED, priority 2021, published 2024).
